Laboratory results: ChEMBL document CHEMBL5252553, “Synthesis and biological activities of drugs for the treatment of osteoporosis” (Eur J Med Chem, 2020)

Assay: n-Octanol/water partition coefficient, log P of the compound
Assay type: physicochemical

Question: For `CCCCCCCCCCCCCC(=O)NCCCC(O)(P(=O)(O)O)P(=O)(O)O`, which logP is on record?
Answer: Its logP is 0.045.

Question: With `CCCCCCCCCCCC(=O)NCCCC(O)(P(=O)(O)O)P(=O)(O)O` as the molecule, how does the logP read?
Answer: The logP was 0.027.

Question: With `CCCCCCCCCCCCCCCC(=O)NCCCC(O)(P(=O)(O)O)P(=O)(O)O` as the molecule, how does the logP read?
Answer: Its logP is 0.053.

Question: With `CCCCCCCCCCCCCCCCCC(=O)NCCCC(O)(P(=O)(O)O)P(=O)(O)O` as the molecule, how does the logP read?
Answer: Its logP is 0.063.
